{
  "source": "patent US20110236886A1",
  "about": "“PATHOGENICITY DETERMINANTS WHICH CAN BE USED AS TARGETS FOR DEVELOPING MEANS FOR PREVENTING AND CONTROLLING BACTERIAL INFECTIONS AND/OR SYSTEMIC DISSEMINATION” (priority 2002, published 2011)",
  "key": {"[1]": {"system": "DltD mutant of S. agalactiae NEM316", "assay": "Disk diffusion sensitivity to cationic antimicrobial peptides, DltD mutant", "type": "cell-based, Streptococcus agalactiae", "details": "for Inhibition area (mm) Mutant DltD: blood agar plates, 18 hours at 37° C., disc content colistin 50 μg, polymixin B 10 μg; for Sensitivity of the DltD mutant to the peptide compared with wild type: result in words", "description": "(§1) The sensitivity of wild type S. agalactiae NEM316 and DltD mutant to cationic antimicrobial peptides was measured by using a disk diffusion methods. The 2 strains were grown on blood agar plates and incubated for 18 hours at 37° C. Each strain was tested using colistin (50 μg) and polymixin (10 μg) disks. Sensitivity or resistance of NEM316 strain and the DltD mutant to each compound was determined by the size of the growth inhibition area around disk."}, "S. agalactiae NEM316": {"system": "S. agalactiae NEM316", "assay": "Disk diffusion sensitivity to cationic antimicrobial peptides, wild type strain", "type": "cell-based, Streptococcus agalactiae", "details": "blood agar plates, 18 hours at 37° C., disc content colistin 50 μg, polymixin B 10 μg", "description": "as §1"}},
  "data": [
    {"substance": "colistin", "values": [
      {"measurement": "Inhibition area (mm) Mutant DltD", "setting": "[1]", "value": 14, "unit": "mm"},
      {"measurement": "Sensitivity of the DltD mutant to the peptide compared with wild type", "setting": "[1]", "value": "increased sensitivity"},
      {"measurement": "Inhibition area (mm) NEM316", "setting": "S. agalactiae NEM316", "value": 0, "unit": "mm"}
    ]},
    {"substance": "polymyxin B [Polymixin B]", "values": [
      {"measurement": "Inhibition area (mm) Mutant DltD", "setting": "[1]", "value": 14, "unit": "mm"},
      {"measurement": "Sensitivity of the DltD mutant to the peptide compared with wild type", "setting": "[1]", "value": "increased sensitivity"},
      {"measurement": "Inhibition area (mm) NEM316", "setting": "S. agalactiae NEM316", "value": 0, "unit": "mm"}
    ]}
  ]
}
